In patent publication US20210244720A1, “Therapeutic Tyrosine Kinase Inhibitors for Relapsing Multiple Sclerosis (RMS)” (Genzyme Corporation, priority 2020, published 2021):

Tested on: participants with relapsing multiple sclerosis (RMS)
Assay: Phase 2b study in RMS: safety and tolerability (adverse events, laboratory tests, ECG, vital signs)
[1] = 5 mg, 12 weeks treatment, n = 33
[2] = 5 mg, BTK inhibitor treatment period, safety population, N = 32
[3] = 5 mg, BTK inhibitor treatment period, safety population, N = 33
[4] = 15 mg, 12 weeks treatment, n = 32
[5] = 15 mg, BTK inhibitor treatment period, safety population, N = 32
[6] = 30 mg, 12 weeks treatment, n = 33
[7] = 30 mg, BTK inhibitor treatment period, safety population, N = 33
[8] = 60 mg, 12 weeks treatment, n = 32

## C=CC(=O)N1CCC[C@@H](n2c(=O)n(-c3ccc(Oc4ccccc4)cc3)c3c(N)nccc32)C1 [the BTK inhibitor, (R)-1-(1-acryloylpiperidin-3-yl)-4-amino-3-(4-phenoxyphenyl)-1H-imidazo[4,5-c]pyridin-2(3H)-one]
[1]
  Accidental overdose, patients n (%): 0
  Alanine aminotransferase increased, patients n (%): 1 (3%)
  Alopecia, patients n (%): 1 (3%)
  Back pain, patients n (%): 1 (3%)
  Gastroenteritis, patients n (%): 1 (3%)
  Headache, patients n (%): 1 (3%)
  Muscle spasticity, patients n (%): 0
  Nasopharyngitis, patients n (%): 1 (3%)
  Oropharyngeal pain, patients n (%): 1 (3%)
  Peripheral edema, patients n (%): 2 (6%)
  Respiratory tract infection, patients n (%): 0
  Upper respiratory tract infection, patients n (%): 2 (6%)
[2]
  Participants with any TEAE, %: (50.0) %
  Participants with any treatment-related TEAE, %: (18.8) %
  Participants with treatment emergent SAE(s), Any class, n(%): 0
  Participants with treatment emergent SAE(s), Multiple sclerosis relapse, n(%): 0
  Participants with treatment emergent SAE(s), NERVOUS SYSTEM DISORDERS, n(%): 0
[3]
  AESI, Alanice aminotransferase increased, n (%): 0
  AESI, Investigations, n (%): 0
  Any AESI, n (%): 0
5 mg, Weeks 1 to 4, N = 16
  AESI, Alanice aminotransferase increased, n (%): 0
  AESI, Investigations, n (%): 0
  Any AESI, n (%): 0
5 mg, Weeks 1 to 4, N = 32
  Participants with any TEAE, %: (25.0) %
  Participants with any treatment-related TEAE, %: (12.5) %
5 mg, Weeks 1 to 4, n = 16
  Any AE, %: (31.3%)
  Any treatment-related AE, %: (12.5%)
5 mg, Weeks 1 to 12, n = 33
  Any AE, %: (57.6) %
  Any treatment-related AE, %: (15.2) %
[4]
  Accidental overdose, patients n (%): 0
  Alanine aminotransferase increased, patients n (%): 0
  Alopecia, patients n (%): 1 (3%)
  Back pain, patients n (%): 1 (3%)
  Gastroenteritis, patients n (%): 0
  Headache, patients n (%): 3 (9%)
  Muscle spasticity, patients n (%): 0
  Nasopharyngitis, patients n (%): 0
  Oropharyngeal pain, patients n (%): 0
  Peripheral edema, patients n (%): 0
  Respiratory tract infection, patients n (%): 1 (3%)
  Upper respiratory tract infection, patients n (%): 2 (6%)
[5]
  AESI, Alanice aminotransferase increased, n (%): 0
  AESI, Investigations, n (%): 0
  Any AESI, n (%): 0
  Participants with any TEAE, %: (56.3) %
  Participants with any treatment-related TEAE, %: (9.4) %
  Participants with treatment emergent SAE(s), Any class, n(%): 0
  Participants with treatment emergent SAE(s), Multiple sclerosis relapse, n(%): 0
  Participants with treatment emergent SAE(s), NERVOUS SYSTEM DISORDERS, n(%): 0
15 mg, Weeks 1 to 4, N = 16
  AESI, Alanice aminotransferase increased, n (%): 0
  AESI, Investigations, n (%): 0
  Any AESI, n (%): 0
15 mg, Weeks 1 to 4, N = 32
  Participants with any TEAE, %: (43.8) %
  Participants with any treatment-related TEAE, %: (3.1) %
15 mg, Weeks 1 to 4, n = 16
  Any AE, %: (18.9%)
15 mg, Weeks 1 to 12, n = 32
  Any AE, %: (53.1) %
  Any treatment-related AE, %: (3.1) %
30 mg group, Week 8 visit
  ALT level of the AESI participant: 105 U/L
30 mg group, within 4 days after Week 8 visit
  ALT level of the AESI participant: 32 U/L
30 mg treatment period
  AESIs (alanine aminotransferase increased >3×ULN): 1
[6]
  Accidental overdose, patients n (%): 0
  Alanine aminotransferase increased, patients n (%): 1 (3%)
  Alopecia, patients n (%): 0
  Back pain, patients n (%): 2 (6%)
  Gastroenteritis, patients n (%): 0
  Headache, patients n (%): 1 (3%)
  Muscle spasticity, patients n (%): 1 (3%)
  Nasopharyngitis, patients n (%): 1 (3%)
  Oropharyngeal pain, patients n (%): 1 (3%)
  Peripheral edema, patients n (%): 0
  Respiratory tract infection, patients n (%): 1 (3%)
  Upper respiratory tract infection, patients n (%): 1 (3%)
[7]
  AESI, Alanice aminotransferase increased, n (%): 1 (3.0)
  AESI, Investigations, n (%): 1 (3.0)
  Any AESI, n (%): 1 (3.0)
  Participants with any TEAE, %: (51.5) %
  Participants with any severe TEAE, %: (3.0) %
  Participants with any treatment emergent SAE, %: (3.0) %
  Participants with any treatment-related TEAE, %: (12.1) %
  Participants with treatment emergent SAE(s), Any class, n(%): 1 (3.0)
  Participants with treatment emergent SAE(s), Multiple sclerosis relapse, n(%): 1 (3.0)
  Participants with treatment emergent SAE(s), NERVOUS SYSTEM DISORDERS, n(%): 1 (3.0)
30 mg, Weeks 1 to 4, N = 16
  AESI, Alanice aminotransferase increased, n (%): 0
  AESI, Investigations, n (%): 0
  Any AESI, n (%): 0
30 mg, Weeks 1 to 4, N = 33
  Participants with any TEAE, %: (42.4) %
  Participants with any treatment-related TEAE, %: (12.1) %
30 mg, Weeks 1 to 4, n = 16
  Any AE, %: (12.5%)
30 mg, Weeks 1 to 12, n = 33
  Any AE, %: (54.5) %
  Any treatment-related AE, %: (12.1) %
60 mg group, Week 4 visit, ULN 34 U/L
  ALT level of the AESI participant: 107 U/L
60 mg group, Week 12
  ALT level of the AESI participant: 28 U/L
60 mg treatment period
  AESIs (alanine aminotransferase increased >3×ULN): 1
[8]
  Accidental overdose, patients %: (9%)
  Accidental overdose, patients n: 3
  Alanine aminotransferase increased, patients %: (3%)
  Alanine aminotransferase increased, patients n: 1
  Alopecia, patients %: (3%)
  Alopecia, patients n: 1
  Back pain, patients n: 0
  Gastroenteritis, patients %: (6%)
  Gastroenteritis, patients n: 2
  Headache, patients %: (13%)
  Headache, patients n: 4
  Muscle spasticity, patients %: (6%)
  Muscle spasticity, patients n: 2
